Measured values reported in patent US6656509B1, “Combination of selenium-containing compounds with cytostatics” (Biosyn Arzneimittel GmbH, priority 1998, dated 2003).

What was measured:
Format in all cases: cell-based, human
[1] = tested on: LXFL 529; assay: clonogenic assay (colony forming assay); conditions: LXFL 529/18, X182AM
Procedure: (§1) Solid human tumor xenografts growing subcutaneously in serial passages in thymus-aplastic nude mice (NMRI nu/nu strain, obtained from our own breeding facility) were removed under sterile conditions, the cells were mechanically disaggregated and subsequently incubated with an enzyme cocktail consisting of collagenase (1.2-1.8 U/ml, Worthington), DNAse (375 U/ml, Boehringer Mannheim) und hyaluronidase (29 U/ml, Boehringer Mannheim) in RPMI 1640 at 37° C. for 30 minutes. The cell mixture was passed through sieves of 200 μm and 50 μm mesh size and washed thereafter twice with PBS. The percentage of viable cells was determined in a Neubauer counting chamber using trypan blue exclusion.
(§2) The clonogenic assay was performed according to a modified two-layer soft agar assay described by Hamburger and Salmon (Hamburger and Salmon, Science, 197: 461463, 1977). The bottom layer consisted of 0.2 ml Iscoves' Modified Dulbecco's Medium with 20% fetal calf serum and 0.75% agar. 8×10^3 to 1,6×10^4 cells were added to 0.2 ml of the same culture medium together with 0.4% agar and placed in already coated 24-multiwell dishes. Test substances were applied by continuous exposure (drug overlay) in 0.2 ml medium. Every dish included six control wells containing the vehicle- and drug-treated groups in triplicate at six concentrations.
(§3) Cultures were incubated at 37° and 7% CO2 in a humidified atmosphere for 5 to 15 days (depending on the doubling time of the tumor stem cells) and monitored for colony growth using an inverted microscope. Within this period, in vitro tumor growth led to the formation of colonies with a diameter of ≧50 μm. At the time of maximum colony formation counts were performed with an automatic image analysis system (OMNICOM Fas IV, Biosys GmbH). 24 hours prior to this assay, vital colonies were stained with a sterile aqueous solution of 2-(4-iodophenyl)-3-(4-nitrophenyl)-5-phenyltetrazolium chloride (1 mg/ml, 100 μI/well). Drug effects were expressed in terms of the percentage of surviving cells, obtained by comparison of the mean number of colonies in the treated plates with the mean colony count of the untreated controls (test-versus-control-group value, T/C=colony countTreated Group*100/colony countControl Group).
(§4) Coefficient of variation in the control group ≦50%. IC50 and IC70 values were determined by plotting compound concentration versus cell survival rate. Mean IC50 and IC70 values were calculated according to the formula: [formula]
(§5) with x=specific tumor xenograft and n=total number of tumor xenografts studied. If an IC50 or IC70 value could not be determined within the examined dose range, the lowest or highest concentration studied was used for the calculation.

[2] = tested on: OVXF 1353; assay: clonogenic assay (colony forming assay); conditions: OVXF 1353/17; X217AM
Procedure: as §1, §2, §3, §4, §5

[3] = tested on: PRXF PC3M; assay: clonogenic assay (colony forming assay); conditions: PRXF PC3M/3; X189/AM
Procedure: as §1, §2, §3, §4, §5

[4] = tested on: pancreatic cancer xenograft PAXF 736; assay: clonogenic assay, single agents and combination studies
Procedure: The cell mixture was passed through sieves of 200 μm and 50 μm mesh size and washed thereafter twice with PBS. The percentage of viable cells was determined in a Neubauer counting chamber using trypan blue exclusion.
8×10^3 to 1,6×10^4 cells were added to 0.2 ml of the same culture medium together with 0.4% agar and placed in already coated 24-multiwell dishes. Test substances were applied by continuous exposure (drug overlay) in 0.2 ml medium. Every dish included six control wells containing the vehicle- and drug-treated groups in triplicate at six concentrations.
as §3, with “24 hours prior to this assay, vital colonies were stained with a sterile aqueous solution of 2-(4-iodophenyl)-3-(4-nitrophenyl)-5-phenyltetrazolium chloride (1 mg/ml, 100 μI/well).” left out
as §4, §5
Each experiment included the chemotherapeutic agents in 6 concentrations, selenium in 2 concentrations (3 and 30 μM), and the combination of all doses with selenium at 3 and 30 μM. All compounds and combinations were studied in triplicates. […] Each experiment was performed twice.
T/Cexpectd(A+B)=T/C(A)×T/C(B)/100
For a zero-interactive drug combination (additivity of drug effects) T/Cexpected(A+B)[…]T/Cobserved(A+B). A drug combination is synergistic if T/Cobserved(A+B) is statistically significant[…]T/Cexpected(A+B). Statistical significance was determined by the T-test.

O=[Se]([O-])[O-].[Na+].[Na+] [sodium selenite]
Test/control (%) at drug concentration [μM] 1. [1]: 61%
Test/control (%) at drug concentration [μM] 10. [1]: 9%
Test/control (%) at drug concentration [μM] 100. [1]: 0%
Test/control (%) at drug concentration [μM] .001 [1]: 90%
Test/control (%) at drug concentration [μM] .01 [1]: 78%
Test/control (%) at drug concentration [μM] .1 [1]: 72%
Test/control (%) class at drug concentration [μM] 1. [1]: − (− (T/C ≧ 50%))
Test/control (%) class at drug concentration [μM] 10. [1]: +++ (+++ (T/C ≦ 10%))
Test/control (%) class at drug concentration [μM] 100. [1]: +++ (+++ (T/C ≦ 10%))
Test/control (%) class at drug concentration [μM] .001 [1]: − (− (T/C ≧ 50%))
Test/control (%) class at drug concentration [μM] .01 [1]: − (− (T/C ≧ 50%))
Test/control (%) class at drug concentration [μM] .1 [1]: − (− (T/C ≧ 50%))
Test/control (%) at drug concentration [μM] 10. ([1]; listed as selenium): < 30%
Test/control (%) at drug concentration [μM] 1. [2]: 90%
Test/control (%) at drug concentration [μM] 10. [2]: 100%
Test/control (%) at drug concentration [μM] 100. [2]: 0%
Test/control (%) at drug concentration [μM] .001 [2]: 96%
Test/control (%) at drug concentration [μM] .01 [2]: 91%
Test/control (%) at drug concentration [μM] .1 [2]: 100%
Test/control (%) class at drug concentration [μM] 1. [2]: − (− (T/C ≧ 50%))
Test/control (%) class at drug concentration [μM] 10. [2]: − (− (T/C ≧ 50%))
Test/control (%) class at drug concentration [μM] 100. [2]: +++ (+++ (T/C ≦ 10%))
Test/control (%) class at drug concentration [μM] .001 [2]: − (− (T/C ≧ 50%))
Test/control (%) class at drug concentration [μM] .01 [2]: − (− (T/C ≧ 50%))
Test/control (%) class at drug concentration [μM] .1 [2]: − (− (T/C ≧ 50%))
Test/control (%) at drug concentration [μM] 1. [3]: 85%
Test/control (%) at drug concentration [μM] 10. [3]: 38%
Test/control (%) at drug concentration [μM] 100. [3]: 1%
Test/control (%) at drug concentration [μM] .001 [3]: 91%
Test/control (%) at drug concentration [μM] .01 [3]: 91%
Test/control (%) at drug concentration [μM] .1 [3]: 89%
Test/control (%) class at drug concentration [μM] 1. [3]: − (− (T/C ≧ 50%))
Test/control (%) class at drug concentration [μM] 10. [3]: + (+ (30% ≦ T/C < 50%))
Test/control (%) class at drug concentration [μM] 100. [3]: +++ (+++ (T/C ≦ 10%))
Test/control (%) class at drug concentration [μM] .001 [3]: − (− (T/C ≧ 50%))
Test/control (%) class at drug concentration [μM] .01 [3]: − (− (T/C ≧ 50%))
Test/control (%) class at drug concentration [μM] .1 [3]: − (− (T/C ≧ 50%))
Sodium selenite T/C in % ([4]; 3.0 μM alone, X265, X290): 81 ± 12%
Sodium selenite T/C in % ([4]; 30.0 μM alone, X265): 43 ± 8%
Sodium selenite T/C in % ([4]; 30.0 μM alone, X290): 5 ± 2%
Sodium selenite T/C in % ([4]; 30.0 μM alone, X290, listed as selenium): 5%
Test/control (%) at drug concentration [μM] 1. ([4]; PAXF 736/17, X184AM): 88%
Test/control (%) at drug concentration [μM] 10. ([4]; PAXF 736/17, X184AM): 90%
Test/control (%) at drug concentration [μM] 100. ([4]; PAXF 736/17, X184AM): 4%
Test/control (%) at drug concentration [μM] .001 ([4]; PAXF 736/17, X184AM): 87%
Test/control (%) at drug concentration [μM] .01 ([4]; PAXF 736/17, X184AM): 77%
Test/control (%) at drug concentration [μM] .1 ([4]; PAXF 736/17, X184AM): 94%
Test/control (%) class at drug concentration [μM] 1. ([4]; PAXF 736/17, X184AM): − (− (T/C ≧ 50%))
Test/control (%) class at drug concentration [μM] 10. ([4]; PAXF 736/17, X184AM): − (− (T/C ≧ 50%))
Test/control (%) class at drug concentration [μM] 100. ([4]; PAXF 736/17, X184AM): +++ (+++ (T/C ≦ 10%))
Test/control (%) class at drug concentration [μM] .001 ([4]; PAXF 736/17, X184AM): − (− (T/C ≧ 50%))
Test/control (%) class at drug concentration [μM] .01 ([4]; PAXF 736/17, X184AM): − (− (T/C ≧ 50%))
Test/control (%) class at drug concentration [μM] .1 ([4]; PAXF 736/17, X184AM): − (− (T/C ≧ 50%))
